≈ marks a conversion by molar mass, not a printed value. Positions of bridges follow the written chain, without caps; N, C: chain ends. Residues, ends and D or L forms follow the SMILES beside them. No end group written: not given here.
Legend:
[1] = test system: L. monocytogenes NCTC 11994; conditions: BHI broth, 37° C., 24 h, OD590
S. aureus DPC5246 = conditions: BHI broth, 37° C., 24 h, OD590
E. coli strains = conditions: broth-based MIC50 assay
L. salivarius UCC118 = assay: inhibition of strains closely related to the producer; format: cell-based, Lactobacillus salivarius
[2] = test system: L. delbrueckii subsp. bulgaricus; assay: antimicrobial activity of purified peptide (well diffusion, FIG. 1); format: cell-based, Lactobacillus delbrueckii subsp. bulgaricus
Description: (§1) The antimicrobial peptide was purified from a 0.5 L overnight culture of L. salivarius DPC6502 grown in MRS-IM-G media. The cells were removed by centrifugation at 8,000×g for 15 min, and the supernatant applied to a column containing 10 ml SP sepharose Fast flow cation-exchange resin (GE Healthcare, UK) previously equilibrated with 50 mM sodium acetate buffer, pH 4.5. The column was washed with 50 mM sodium acetate buffer, pH 4.5 containing 0.3 M NaCl, the bioactive peptide was subsequently eluted from the column using 50 mM sodium acetate buffer, pH 4.5 containing 1.0 M NaCl. The eluate was applied to a 2.0 g (12 ml volume) C18 Bond Elute column (Phenomenex, Cheshire, UK) pre-equilibrated with methanol and water. […] The column was pre-equilibrated with 10% acetonitrile containing 0.1% (vol/vol) TFA, followed by separation and elution of the bioactive peptide by gradient RP-HPLC using 0.1% (vol/vol) TFA and acetonitrile concentrations that ranged from 10% to 30% (vol/vol), from 5 to 45 min at a flow rate of 1.0 ml min^−1 Absorbance was monitored at a wavelength of 214 nm. Antimicrobial peptide activity was monitored throughout the purification procedure by well diffusion assay using the sensitive indicator strain L. delbrueckii subsp. bulgaricus LMG6901. […]

Listeria = assay: antimicrobial activity of purified peptide (FIG. 1); format: cell-based
Description: as §1

Staphylococcus aureus = assay: as above; format: cell-based
[3] = test system: bovine mastitis isolate S. aureus DPC5245; conditions: cited from earlier work

For `CSCC[C@H](NC(=O)CNC(=O)[C@@H](NC(=O)[C@@H]1CCCN1C(=O)[C@H](CCSC)NC(=O)CNC(=O)[C@H](CC(N)=O)NC(=O)[C@H](CC(N)=O)NC(=O)[C@H](Cc1ccc(O)cc1)NC(=O)[C@@H](NC(=O)[C@H](CCCNC(=N)N)NC(=O)[C@H](CS)NC(=O)[C@H](CCCNC(=N)N)NC(=O)[C@H](Cc1c[nH]cn1)NC(=O)[C@H](CCCCN)NC(=O)[C@H](CCCCN)NC(=O)[C@H](CCCNC(=N)N)NC(=O)[C@@H](N)CCCCN)C(C)C)[C@@H](C)O)C(=O)N[C@@H](Cc1ccc(O)cc1)C(=O)N[C@@H](CCCNC(=N)N)C(=O)N[C@@H](Cc1c[nH]c2ccccc12)C(=O)N[C@@H](CS)C(=O)O` [synthetic Bactofensin LS1] (H-KRKKHRCRVYNNGMPTGMYRWC-OH; N-terminus assumed), the “MIC50 (concentration sufficient to inhibit growth by 50%)” value [1] was 5 µM (≈ 13.9 µg/mL), the “MIC50 (concentration sufficient to inhibit growth by 50%)” value (S. aureus DPC5246) was 5 µM (≈ 13.9 µg/mL) and the “concentration that did not inhibit (MIC50 assay)” value (E. coli strains) was > 50 µM. For the same molecule, the “concentration that did not inhibit (MIC50 assay)” value (E. sakazakii strains) was > 50 µM.
With “Bactofensin LS1: 22 aa cationic class II antimicrobial peptide of SEQ ID NO: 2 purified from L. salivarius DPC6502 (KRKKHRCRVYNNGMPTGMYRWC; disulfide 7-22; listed as Lactobacillus salivarius)” the “inhibition of closely related strains” value (L. salivarius UCC118) was “inhibits”, the antimicrobial activity [2] was “active” and the antimicrobial activity (Listeria) was “active”. For the same molecule, the antimicrobial activity (Staphylococcus aureus) was “active”.
For lacticin 3147, the MIC50 [3] is listed as 7 to 8 µM.

Reference: patent publication US20140286904A1, “ANITMICROBIAL PEPTIDE PRODUCED BY INTESTINAL LACTOBACILLUS SALIVARIUS” (AGRICULTURE AND FOOD DEVELOPMENT AUTHORITY (TEAGASC), priority 2011, published 2014)
